Structures can show the parent of a compound that is named as a salt. Where two headings read alike, the source gives them in different places.
Legend:
Assay type in all cases: cell-based
[1] = target: T1, GHSR-1a (HEK293/GHSR1a cell line) (Homo sapiens, UniProt Q92847); experiment: Ghrelin antagonist potency (IC50) with calcium FLIPR assay, ghrelin 10 nM
T1 construct: expressed in transfected cells; host or cells: HEK293/GHSR1a cell line
Summary of the method: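 Dye preload 30-60 min, RT or 37° C; compound in DMSO. Agonist mode: compound at t=20 sec, Ca2+ read 2 min. Antagonist mode: compound + ghrelin 10 nM at t=20 sec, 2 min read. EC50/IC50 from dose-response curves.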

[2] = target: T1, GHSR-1a (HEK293/GHSR1a cell line); experiment: Ghrelin agonist potency (EC50) with calcium FLIPR assay; details: HEK293/GHSR1a, read-out: Activity EC50/EMax: EC50 (ghrelin agonist potency)
Procedure: Evaluation of Ghrelin Agonist (EC50) and Antagonist Potency (IC50) with Calcium FLIPR Assay:
The intracellular calcium assay was carried out in a 384-well format FLIPR™ (Molecular Device) HEK293/GHSR1a cell line. Cells were seeded 24 hr prior to the experiments at an optimal density per well. Preincubation with selected calcium dye lasted for 30-60 min at room temperature or 37° C. Test compounds, dissolved in DMSO, were added at the appropriate time and incubated for 15 min followed by the addition of ghrelin with FlexStation or FLIPR. Relative fluorescence was monitored by the FLIPR™ Molecular Device. EC50 and IC50 values were estimated from dose-response data using GraphPad Prism software. To check for GHSR-1a agonism, the compound was added at t=20 sec. and the calcium response was followed for 2 minutes. To check for GHSR-1a antagonism, the compound and Ghrelin (10 nM) were added to the cells at t=20 sec. and the calcium response was measured for 2 minutes. The potency of the antagonist was calculated by its ability to reduce the ghrelin response. Dose-response curves were made for relevant antagonists.

[3] = target: T2, recombinant human ghrelin receptor (HEK293/GRLN) (Homo sapiens, UniProt Q92847); experiment: Ghrelin inverse agonist potency (EC50) with IP-1 (IP-One HTRF) assay; details: IP-1 assay
T2 construct: expressed in transfected cells
T2 sequence (Q92847 whole entry): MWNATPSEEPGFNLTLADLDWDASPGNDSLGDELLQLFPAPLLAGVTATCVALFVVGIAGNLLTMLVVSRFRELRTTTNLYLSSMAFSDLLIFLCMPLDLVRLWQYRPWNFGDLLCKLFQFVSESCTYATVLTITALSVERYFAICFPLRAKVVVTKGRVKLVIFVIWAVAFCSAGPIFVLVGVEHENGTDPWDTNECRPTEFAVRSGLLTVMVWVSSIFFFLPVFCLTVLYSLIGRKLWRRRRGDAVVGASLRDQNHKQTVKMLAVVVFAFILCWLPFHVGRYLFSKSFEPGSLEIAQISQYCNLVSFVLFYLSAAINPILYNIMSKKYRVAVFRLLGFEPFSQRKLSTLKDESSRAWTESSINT
Procedure: Evaluation of Ghrelin Inverse Agonist Potency (EC50) with IP-1 Assay:
HEK293 cells stably expressing recombinant human ghrelin receptor (HEK293/GRLN) were used in the IP-One HTRF assay. One day before the test, cells were seeded at a density of 1.5×10^4/well in a Matrigel® coated 384-well plate with 30 μL of complete Dulbecco's Modified Eagle's Medium and incubated at 37° C. in 5% CO2 for 18-22 hours. On the test day, the medium was removed by centrifugation at 600 rpm for 30 seconds, and 20 μL of stimulation buffer containing 1x tested compound was added with Bravo (Agilent technologies). The plate was then incubated at 37° C. 5% CO2 for 1 hour. After the incubation, 5 μL of IP1-d2 and 5 μL of Tb-Cryp were added to all wells using multidrop Combi(Thermo). After additional incubation at room temperature for 1 hour, the plates were read on Envision with 620 and 665 (Perkin Elmer).

[4] = HEK293/GHSR1a, ghrelin 10 nM, read-out: Activity IC50 (ghrelin antagonist potency)
[5] = ghrelin antagonist potency, read-out: IC50 (Activity)
[6] = inverse agonist potency, read-out: EC50 (Activity)

T1 sequence (Q92847 whole entry): as above

Row | Structure (SMILES) | IC50 [1, 4] | EC50 [2] | IC50 [1, 5] | EC50 [3, 6] | further results
1 | CC(NC(=O)Nc1ccc(S(=O)(=O)N2CC3CNCC3C2)cc1)c1ccccc1 (stereo not shown) [H1277, 1-(4-((hexahydropyrrolo[3,4-c]pyrrol-2(1H)-yl)sulfonyl)phenyl)-3-(1-phenylethyl)urea] | 8760 nM | > 30000 nM | – | – | –
2 | CC(NC(=O)Nc1ccc(S(=O)(=O)Cc2ccc3nn(C)cc3c2)cc1)c1ccccc1 (stereo not shown) [H1329, 1-(4-(((2-methyl-2H-indazol-5-yl)methyl)sulfonyl)phenyl)-3-(1-phenylethyl)urea] | > 30000 nM | > 30000 nM | – | – | –
3 | CCN(CC)c1ccc(CS(=O)(=O)c2ccc(NC(=O)NC(C)c3cccc(Cl)c3Cl)cc2)cc1 (stereo not shown) [H1360, 1-(1-(2,3-dichlorophenyl)ethyl)-3-(4-((4-(diethylamino)benzyl)sulfonyl)phenyl)urea] | > 30000 nM | > 30000 nM | – | – | –
4 | C[C@H](NC(=O)Nc1ccc(S(=O)(=O)Cc2ccc3c(c2)C2CCC3N2)cc1)c1ccccc1 (stereo partly drawn) [H1324, 1-((S)-1-phenylethyl)-3-(4-(((1,2,3,4-tetrahydro-1,4-epiminonaphthalen-6-yl)methyl)sulfonyl)phenyl)urea] | 10500 nM | > 30000 nM | – | – | –
5 | C[C@H](NC(=O)Nc1ccc(S(=O)(=O)Cc2ccc(CN3CCC(O)C3)cc2)cc1)c1ccccc1 (stereo partly drawn) [H1313, 1-(4-((4-((3-hydroxypyrrolidin-1-yl)methyl)benzyl)sulfonyl)phenyl)-3-((S)-1-phenylethyl)urea] | 1460 nM | > 30000 nM | – | – | –
6 | C[C@H](NC(=O)Nc1ccc(S(=O)(=O)Cc2ccc(CN3CCC(CO)C3)cc2)cc1)c1ccccc1 (stereo partly drawn) [H1314, 1-(4-((4-((3-(hydroxymethyl)pyrrolidin-1-yl)methyl)benzyl)sulfonyl)phenyl)-3-((S)-1-phenylethyl)urea] | 3100 nM | > 30000 nM | – | – | –
7 | C[C@H](NC(=O)Nc1ccc(S(=O)(=O)Cc2ccc(C3CCCN3)cc2)cc1)c1ccccc1 (stereo partly drawn) [H1328, 1-((S)-1-phenylethyl)-3-(4-((4-(pyrrolidin-2-yl)benzyl)sulfonyl)phenyl)urea] | 546 nM | > 30000 nM | – | – | –
8 | CCc1ccc(Cl)c(C(=O)NC(=O)Nc2ccc(S(=O)(=O)Cc3ccc(CO)cc3)cc2)c1 [H1255, 2-chloro-5-ethyl-N-((4-((4-(hydroxymethyl)benzyl)sulfonyl)phenyl)carbamoyl)benzamide] | 2330 nM | > 30000 nM | – | – | –
9 | CCN(CC)CCCS(=O)(=O)c1ccc(NC(=O)NC(C)c2cccc(Cl)c2Cl)cc1 (stereo not shown) [H1361, 1-(1-(2,3-dichlorophenyl)ethyl)-3-(4-((3-(diethylamino)propyl)sulfonyl)phenyl)urea] | 1610 nM | > 30000 nM | – | – | –
10 | CC1Cc2cc(CS(=O)(=O)c3ccc(NC(=O)N[C@@H](C)c4cccc(Cl)c4Cl)cc3)ccc2CN1 (stereo partly drawn) [H1403, 1-((S)-1-(2,3-dichlorophenyl)ethyl)-3-(4-(((3-methyl-1,2,3,4-tetrahydroisoquinolin-6-yl)methyl)sulfonyl)phenyl)urea] | 1.5 nM | > 30000 nM | – | – | –
11 | C[C@H](NC(=O)Nc1ccc2c(c1)CC(c1ccc3c(c1)CN(C)C3)S2(=O)=O)c1ccccc1 (stereo partly drawn) [H1285, 1-(2-(2-methylisoindolin-5-yl)-1,1-dioxido-2,3-dihydrobenzo[b]thiophen-5-yl)-3-((S)-1-phenylethyl)urea] | 65 nM | 147 nM | – | – | –
12 | CC(c1ccccc1)N(C)C(=O)Nc1ccc(S(=O)(=O)Cc2ccc3c(c2)CNC3)cc1F (stereo not shown) [H1399, 3-(2-fluoro-4-((isoindolin-5-ylmethyl)sulfonyl)phenyl)-1-methyl-1-(1-phenylethyl)urea] | 2060 nM | > 30000 nM | – | – | –
13 | CC1Cc2cc(CS(=O)(=O)c3ccc(NC(=O)NC(C)c4cccc(Cl)c4Cl)c(F)c3)ccc2CN1 (stereo not shown) [H1401, 1-(1-(2,3-dichlorophenyl)ethyl)-3-(2-fluoro-4-(((3-methyl-1,2,3,4-tetrahydroisoquinolin-6-yl)methyl)sulfonyl)phenyl)urea] | 3.4 nM | > 30000 nM | – | – | –
14 | CC(NC(=O)Nc1ccc(S(=O)(=O)Cc2ccncc2)cc1)c1ccccc1 (stereo not shown) [H1280, 1-(1-phenylethyl)-3-(4-((pyridin-4-ylmethyl)sulfonyl)phenyl)urea] | 905 nM | > 30000 nM | – | – | –
15 | COc1cc(N2C[C@@H](C)N[C@@H](C)C2)ccc1NS(=O)(=O)c1ccc(NC(=O)N[C@H](C)c2cccc(Cl)c2Cl)cc1 [H1362, 4-(3-((R)-1-(2,3-dichlorophenyl)ethyl)ureido)-N-(4-((cis)-3,5-dimethylpiperazin-1-yl)-2-methoxyphenyl) benzenesulfonamide] | 1550 nM | > 30000 nM | – | – | –
16 | CN1Cc2ccc(CS(=O)(=O)c3ccc(NC(=O)NCC(C)(C)C)cc3)cc2C1 [H1228, 1-(4-(((2-methylisoindolin-5-yl)methyl)sulfonyl)phenyl)-3-neopentylurea] | – | – | 766 nM | 1260 nM | –
17 | C[C@H](NC(=O)Nc1ccc(S(=O)(=O)Cc2cccc(CO)c2)cc1)c1cccc(Cl)c1Cl [H1088, (S)-1-(1-(2,3-dichlorophenyl)ethyl)-3-(4-((3-(hydroxymethyl)benzyl)sulfonyl)phenyl)urea] | – | – | 7970 nM | 367 nM | –
18 | CC(NC(=O)Nc1ccc(S(=O)(=O)Cc2ccc3c(c2)CN(C)C3)cc1)C1CC1 (stereo not shown) [H1244, 1-(1-cyclopropylethyl)-3-(4-(((2-methylisoindolin-5-yl)methyl)sulfonyl)phenyl)urea] | – | – | 1280 nM | 356 nM | –
19 | C[C@H](NC(=O)Nc1ccc(S(=O)(=O)Cc2ccc3c(c2)COCC3)cc1)c1cccc(Cl)c1Cl [H1097, (S)-1-(1-(2,3-dichlorophenyl)ethyl)-3-(4-((isochroman-7-ylmethyl)sulfonyl)phenyl)urea] | – | – | 1970 nM | 363 nM | –
20 | CC(C)CNC(=O)Nc1ccc(S(=O)(=O)Cc2ccc3c(c2)CN(C)C3)cc1 [H1236, 1-isobutyl-3-(4-(((2-methylisoindolin-5-yl)methyl)sulfonyl)phenyl)urea] | – | – | 1640 nM | 507 nM | –
21 | CC(C)(C)NC(=O)Nc1ccc(S(=O)(=O)Cc2ccc3c(c2)CNC3)cc1 [H1205, 1-(tert-butyl)-3-(4-((isoindolin-5-ylmethyl)sulfonyl)phenyl)urea] | – | – | 9870 nM | 5340 nM | –
22 | COc1ccc(CNC(=O)Nc2ccc(S(=O)(=O)Cc3ccc4c(c3)CNC4)cc2)cc1 [H1203, 1-(4-((isoindolin-5-ylmethyl)sulfonyl)phenyl)-3-(4-methoxybenzyl)urea] | – | – | 447 nM | 161 nM | –
23 | C[C@H](NC(=O)Nc1ccc(S(=O)(=O)Cc2ccc(COS(=O)(=O)O)cc2)cc1)c1cccc(Cl)c1Cl [H1181, (S)-4-(((4-(3-(1-(2,3-dichlorophenyl)ethyl)ureido)phenyl)sulfonyl)methyl) benzyl hydrogen sulfate] | – | – | 3310 nM | 957 nM | –
24 | COc1ccc(C(C)NC(=O)Nc2ccc(S(=O)(=O)Cc3ccc4c(c3)CNC4)cc2)cc1Cl (stereo not shown) [H1477, 1-(1-(3-chloro-4-methoxyphenyl)ethyl)-3-(4-((isoindolin-5-ylmethyl)sulfonyl)phenyl)urea] | – | – | – | – | IC50 ([1]; ghrelin antagonist potency, read-out: Activity IC50): 36.9 nM; EC50 ([3]; ghrelin inverse agonist potency, read-out: Activity EC50): 17.4 nM
25 | C[C@H](NC(=O)Nc1ccc(S(=O)(=O)Nc2ccc3[nH]ncc3c2)cc1)c1cccc(Cl)c1Cl [H1106, (S)-4-(3-(1-(2,3-dichlorophenyl)ethyl)ureido)-N-(1H-indazol-5-yl) benzenesulfonamide] | – | – | 1430 nM | 862 nM | –
26 | CC(c1ccccc1)N(C)C(=O)Nc1ccc(S(=O)(=O)Cc2ccc3c(c2)CNC3)cc1 (stereo not shown) [H1206, 3-(4-((isoindolin-5-ylmethyl)sulfonyl)phenyl)-1-methyl-1-(1-phenylethyl)urea] | – | – | 262 nM | 252 nM | –

Reference: patent US10501479B2, “Benzenesulfonyl-asymmetric ureas and medical uses thereof” (HELSINN HEALTHCARE SA, priority 2016, dated 2019)
